Test results taken from patent US4551547A, “Biocidal 2-aryl-1, 3-cyclopentanedione enol ester compounds” (Union Carbide Corporation, priority 1983, dated 1985).

How the values were obtained:
Crabgrass = test: Preliminary herbicide seed germination test (pre-emergent), crabgrass; type: in vivo, Digitaria sanguinalis; design: key: 5: no seedling emerged; 4: few seedlings emerged and/or very severe stunting; 3: moderate reduction in stand and/or moderate stunting.; 2: very slight reduction in stand and/or slight stunting; 1: no injury, seedlings appear no different with respect to stand or growth than untreated controls; conditions: Table II; ten to twelve days after application
Experimental: (§1) Suspensions of the test compounds were prepared by dissolving one gram of compound in 50 milliliters of acetone in which had been dissolved 0.1 gram (10 percent of the weight of compound) of an alkylphenoxyethanol sufactant, as an emulsifying or dispersing agent. The resulting solution was mixed into 160 milliliters of water to give roughly 200 milliliters of a suspension containing the compound in finely divided form. The thus prepared stock suspension contained 0.5 percent by weight of compound. The test concentrations employed in the tests described below were obtained by diluting the stock suspension with water. The test procedures were as follows:
(§2) The following seeds were used in this test:
Crabgrass--Digitaria sanguinalis
(§3) Two […] mixtures were prepared as follows:
(§4) Each of the above mixtures was rolled separately in 5 gallon containers for approximately one-half hour on ball mill to insure uniform mixing of seeds and soil. For each compound four 3-inch pots were filled with soil to within 11/2 inches of top of pots. To two of these pots were added 70 cc. of Mixture I. To the remaining 2 pots were added 70 cc. of Mixture II. The seed-soil mixture was tamped firmly, and the pots were removed to the greenhouse and watered lightly. About 2 hours after planting, 25 milliliters of the test formulation were added to one pot containing Mixture I and one pot containing Mixture II. An equal volume of a water solution containing acetone and an emulsifier in the same concentration as the herbicidal mixture but without the candidate herbicide was also added to each of the soil-seed mixtures. These pots are used as check or control units. The test compounds were formulated by diluting the stock suspension with water to obtain the desired concentration of the compound in parts per million of the final formulation. Each compound was tested at the same concentration. […] Ratings were made according to the following designations: […]

Cotton = test: Post-emergent herbicidal test, cotton; type: in vivo; design: key: 1: no perceptible injury; 2: intermediate degrees of injury; 3: intermediate degrees of injury; 4: intermediate degrees of injury; 5: the plant was dead; conditions: Table II; 2500 parts per million, after ten days
Experimental: as §1
(§5) Experiments were also conducted to determine the phytotoxicity of representative compositions with respect to healthy fresh plants. Solutions of the compounds were prepared as described above to provide a concentration of 2500 parts per million of the test compound. The test plants were sprayed in accordance with the procedure described above for the Mite Foliage Spray Test so as to deliver approximately 100 milliliters of test solutions to the leaves of each plant tested. The sprayed plants and controls were set aside for approximately one hour to allow the solutions to dry and were then placed in the greenhouse. After ten days the plants were visually inspected to determine the extent of foliage injury. A rating of 1 indicates no perceptible injury; 5 indicates the plant was dead and ratings of 2, 3 and 4 indicate intermediate degrees of injury based upon the number and extent to which leaves were injured.

Corn = test: Post-emergent herbicidal test, corn; type: in vivo; design: key: 1: no perceptible injury; 2: intermediate degrees of injury; 3: intermediate degrees of injury; 4: intermediate degrees of injury; 5: the plant was dead; conditions: Table II; 2500 parts per million, after ten days
Experimental: as §1, §5

[1] = system: Red root pigweed (Amaranthus); test: Preliminary herbicide seed germination test (pre-emergent), red root pigweed; type: in vivo, Amaranthus retroflexus; design: key: 5: no seedling emerged; 4: few seedlings emerged and/or very severe stunting; 3: moderate reduction in stand and/or moderate stunting.; 2: very slight reduction in stand and/or slight stunting; 1: no injury, seedlings appear no different with respect to stand or growth than untreated controls; conditions: Table II; ten to twelve days after application
Experimental: as §1, §2
Red root pigweed--Amaranthus retroflexus
as §3, §4

Mustard = test: Preliminary herbicide seed germination test (pre-emergent), mustard; type: in vivo, Brassica pincea var. foliosa (Florida broadleaf); design: key: 5: no seedling emerged; 4: few seedlings emerged and/or very severe stunting; 3: moderate reduction in stand and/or moderate stunting.; 2: very slight reduction in stand and/or slight stunting; 1: no injury, seedlings appear no different with respect to stand or growth than untreated controls; conditions: Table II; ten to twelve days after application
Experimental: as §1, §2
Mustard--Brassica pincea var. foliosa (Florida broadleaf)
as §3, §4

[2] = system: egg of the two-spotted mite; test: Mite Ovicide Test (eggs); type: in vivo, Tetranychus urticae (Koch); design: key to Miticidal, Egg: A: Excellent Control; B: Partial Control; No Control; conditions: Table II; unhatched eggs after four days
Experimental: Suspensions of the test compounds were prepared by dissolving one gram of compound in 50 milliliters of acetone in which had been dissolved 0.1 gram (10 percent of the weight of compound) of an alkylphenoxyethanol sufactant, as an emulsifying or dispersing agent. The resulting solution was mixed into 160 milliliters of water to give roughly 200 milliliters of a suspension containing the compound in finely divided form. The thus prepared stock suspension contained 0.5 percent by weight of compound. The test concentrations employed in the tests described below were obtained by diluting the stock suspension with water. The test procedures were as follows: The test organism was the egg of the two-spotted mite (Tetranychus urticae (Koch)), as obtained from adults reared on […] bean plants under controlled conditions of 80±5° F. and 50±5 percent relative humidity. Heavily infested leaves from a stock culture were placed on the primary leaves of two bean plants six to eight inches in height growing in a two-and-a-half inch clay pot. Females were allowed to oviposit for a period of 48 hours and the leaves of the infested plants were dipped in a solution containing 800 parts of tetraethyl pyrophosphate per million parts of water in order to destroy the reproductory forms and thus prevent further egg laying. […] The plants were allowed to dry thoroughly. The test compounds were formulated by diluting the stock suspension with water to give a suspension containing varying amounts of test compound per million parts of final formulation. The potted plants (one pot per compound) were placed on a revolving turntable and sprayed with 100-110 milliliters of test compound formulation by use of a DeVilbis spray gun set at 40 spig. air pressure. This application which lasted 30 seconds, was sufficient to wet the plants to run-off. As a control, 100-110 milliliters of a water solution containing acetone and emulsifier in the same concentrations as the test compound formulation, but containing no test compound, were also sprayed on plants infested with eggs. The sprayed plants were held at 80±5° F. and 50±5 percent relative humidity for four days, after which a microscopic examination was made of unhatched (dead) and hatched (living) eggs. In these tests the pesticidal activity of the compounds against mites and mite eggs was rated as follows: Tests were conducted in accordance with the procedures given at pages 17 to 21 supra. The results are expressed in the same manner as used in Table II, except with respect to miticidal activity. For mite adult and mite egg comparison purposes, results are given in parts per million (ppm) required for a 50 percent kill of mites or eggs, respectively.

Perennial rye grass = test: Preliminary herbicide seed germination test (pre-emergent), perennial rye grass; type: in vivo, Solium perenne; design: key: 5: no seedling emerged; 4: few seedlings emerged and/or very severe stunting; 3: moderate reduction in stand and/or moderate stunting.; 2: very slight reduction in stand and/or slight stunting; 1: no injury, seedlings appear no different with respect to stand or growth than untreated controls; conditions: Table II; ten to twelve days after application
Experimental: as §1, §2
Perennial rye grass--Solium perenne
as §3, §4

Tomato = test: Post-emergent herbicidal test, tomato; type: in vivo; design: key: 1: no perceptible injury; 2: intermediate degrees of injury; 3: intermediate degrees of injury; 4: intermediate degrees of injury; 5: the plant was dead; conditions: Table II; 2500 parts per million, after ten days
Experimental: as §1, §5

Structure (SMILES)	Pre-emergent Herbicidal, Crabgrass (Crabgrass)	Post-emergent Herbicidal, Cotton (Cotton)	Post-emergent Herbicidal, Corn (Corn)	Pre-emergent Herbicidal, Amaranthus [1]	Pre-emergent Herbicidal, Mustard (Mustard)	Miticidal, Egg [2]	Pre-emergent Herbicidal, Rye (Perennial rye grass)	Post-emergent Herbicidal, Tomato (Tomato)
Cc1ccc(C2=C(OC(=O)c3ccccc3)CCC2=O)c(C)c1 [Compound 10]	2	1	3	1	1	B	3	1
CCCCC(CC)C(=O)OC1=C(c2ccccc2C)C(=O)C2CCCCC12 (stereo not drawn) [Compound 21, 3-(2-Ethylhexanoyloxy)-2-(2'-methylphenyl)-4,5,6,7,8,9-hexahydro-2-indenone]	2	2	5	2	1	A	3	1
Cc1ccc(C)c(C2=C(OC(=O)C(C)C)CCC2=O)c1 [Compound 12]	1	3	2	1	1	B	1	3
Cc1ccc(C)c(C2=C(OC(=O)C(C)C)CC(C)C2=O)c1 (stereo not drawn) [Compound 16]	1	3	3	3	2	B	3	2
CC(=O)OC1=C(c2cc(C)ccc2C)C(=O)C(C)C1 (stereo not drawn) [Compound 15]	2	2	3	3	2	B	4	2
CCCCCCCCCCCCCCCC(=O)OC1=C(c2ccc(Cl)cc2Cl)C(=O)CC1 [Compound 6]	–	1	1	1	1	B	1	1
CCCCC(CC)C(=O)OC1=C(c2ccc(Cl)cc2Cl)C(=O)CC1 (stereo not drawn) [Compound 5]	–	2	3	1	1	A	1	2
CCCCC(CC)C(=O)OC1=C(c2cc(C)ccc2C)C(=O)C2CCCCC12 (stereo not drawn) [Compound 30, 3-(2-ethylhexanoyloxy)-2-(2',5'-dimethylphenyl)-4,5,6,7,8,9-hexahydro-2-indenone]	1	1	2	1	1	A	1	1
CCCCCCCCCC(=O)OC1=C(c2ccccc2C)C(=O)C2CCCCC12 (stereo not drawn) [Compound 23]	3	3	5	3	3	A	5	1
CC(C)C(=O)OC1=C(c2ccc(Cl)cc2Cl)C(=O)CC1 [Compound 4]	–	2	4	1	1	B	1	2
CC(=O)OC1=C(c2ccc(Cl)cc2Cl)C(=O)CC1 [Compound 3]	–	2	3	2	1	A	2	2
